# Experimental data published in ChEMBL document CHEMBL5579866, “TRPA1 Inhibition Effects by 3-Phenylcoumarin Derivatives” (2024).
# Active and inactive are the calls of the source. No cut-off for these calls is given here.
# Columns and labels:
# T47D [1] = assay: Downregulation of TRPA1 protein expression in human T47D cells after 48 hrs; type: functional, cell-based
# [2] = molecular target: Transient receptor potential cation channel subfamily A member 1 (Homo sapiens) (UniProt O75762); assay: Agonist activity at human TRPA1; details: filed as agonist
# Chain of Transient receptor potential cation channel subfamily A member 1 (Homo sapiens) (O75762 whole entry): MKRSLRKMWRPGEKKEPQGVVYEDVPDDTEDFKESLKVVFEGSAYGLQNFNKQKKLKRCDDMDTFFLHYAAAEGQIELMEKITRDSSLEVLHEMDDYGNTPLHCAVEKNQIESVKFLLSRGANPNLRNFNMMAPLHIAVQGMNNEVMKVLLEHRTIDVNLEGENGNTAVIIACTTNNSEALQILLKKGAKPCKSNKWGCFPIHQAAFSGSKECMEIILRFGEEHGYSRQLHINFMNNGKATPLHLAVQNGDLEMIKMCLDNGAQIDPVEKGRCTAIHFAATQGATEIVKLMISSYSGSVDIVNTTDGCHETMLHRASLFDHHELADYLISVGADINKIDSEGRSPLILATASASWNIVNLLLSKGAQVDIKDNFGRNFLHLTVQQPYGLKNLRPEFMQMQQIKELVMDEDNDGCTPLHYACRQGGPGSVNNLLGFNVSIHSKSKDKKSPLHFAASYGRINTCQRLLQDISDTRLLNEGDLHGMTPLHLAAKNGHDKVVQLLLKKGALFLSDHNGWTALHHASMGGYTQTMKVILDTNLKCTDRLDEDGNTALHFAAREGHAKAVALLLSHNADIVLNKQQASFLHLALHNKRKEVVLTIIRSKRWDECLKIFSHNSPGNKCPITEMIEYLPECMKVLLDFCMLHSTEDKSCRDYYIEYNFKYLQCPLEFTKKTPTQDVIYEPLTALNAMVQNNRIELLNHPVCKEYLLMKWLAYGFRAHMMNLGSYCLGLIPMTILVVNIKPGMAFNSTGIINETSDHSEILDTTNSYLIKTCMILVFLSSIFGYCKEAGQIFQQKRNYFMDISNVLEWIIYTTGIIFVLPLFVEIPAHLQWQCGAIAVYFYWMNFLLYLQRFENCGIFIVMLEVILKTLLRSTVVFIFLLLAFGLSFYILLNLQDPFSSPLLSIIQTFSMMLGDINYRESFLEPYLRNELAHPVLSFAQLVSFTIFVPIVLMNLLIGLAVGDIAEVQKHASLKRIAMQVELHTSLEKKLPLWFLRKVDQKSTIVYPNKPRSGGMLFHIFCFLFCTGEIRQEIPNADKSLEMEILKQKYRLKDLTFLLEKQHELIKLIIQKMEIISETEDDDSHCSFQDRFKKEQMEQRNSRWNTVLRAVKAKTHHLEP
# [3] = molecular target: Transient receptor potential cation channel subfamily A member 1 (Homo sapiens) (UniProt O75762); assay: Antagonist activity at AITC induced human TRPA1 expressed in HEK293 cells assessed as intracellular calcium level at 10 to 100 uM preincubated for 30 mins followed by AITC stimulation and measured for 30 sec by Fluo-3AM staining based assay; type: cell-based; details: filed as antagonist, dose 10-100 µM, time 1830.0 sec
# T47D [4] = assay: Inhibition of human T47D spheroid 3D culture growth size at 100 uM incubated for 5 days by CellIQ live-cell analysis; type: functional; details: 120 h, time 5 day
# T47D [5] = assay: Inhibition of human T47D spheroid 3D culture growth size at 10 uM incubated for 120 hrs by CellIQ live-cell analysis; type: functional
# T47D [6] = assay: Inhibition of human T47D spheroid 3D culture growth size at 10 to 100 uM incubated for 12 hrs by CellIQ live-cell analysis; type: functional, cell-based; details: dose 10-100 µM
# T47D [7] = assay: Inhibition of human T47D spheroid 3D culture growth size at 10 uM incubated for 5 days by CellIQ live-cell analysis; type: functional; details: 120 h, time 5 day
# T47D [8] = assay: Inhibition of human T47D spheroid 3D culture growth size at 1 uM incubated for 120 hrs by CellIQ live-cell analysis; type: functional
Activity [2],Activity [3],SMILES,Activity (T47D [1]),also measured
Active,Active,O=c1oc2cc(O)ccc2cc1-c1cccc(O)c1,Active,–
–,Active,CC(=O)Oc1ccc2cc(-c3ccccc3)c(=O)oc2c1,inactive,–
–,–,Oc1ccc(/C=C/c2cc(O)cc(O)c2)cc1,Active,–
–,Active,CC(=O)Oc1ccc2cc(-c3cccc(Br)c3)c(=O)oc2c1,inactive,inhibition at 100 µM (T47D [4]): 18%; inhibition at 10 µM (T47D [5]): 60%; inhibition (T47D [6]): Active; inhibition at 10 µM (T47D [7]): 8%; inhibition at 1 µM (T47D [8]): 20%
Active,–,O=c1oc2ccccc2cc1-c1cccc(O)c1,Active,–
–,Active,O=c1oc2ccccc2cc1-c1ccc(O)cc1,–,–
